Legend:
[1] = system: Normal human epidermal keratinocytes (NHEK); experiment: IL-1β production after ultraviolet irradiation in NHEK treated with autophagy inhibitor or inducing agent (ELISA); assay type: cell-based; conditions: 3-MA 1 mM; UV 290 to 315 nm, 20 mJ/cm^2; culture supernatant after 48 hours
Procedure: Normal human epidermal keratinocytes (NHEK) (Kurabo Industries, Ltd.) were seeded in a 6-well plate and cultured to subconfluence using epidermal keratinocyte growth medium (EpiLife-KG2; Gibco Co). The medium was then exchanged with medium containing 3-methyladenine (3-MA) (by R&D Co., final concentration: 1 mM), as a known autophagy inhibitor and medium containing rapamycin (by Enzo Life Science, final concentration: 0.5 μM) as a known autophagy inducing agent, and culturing was continued for 3 hours. After culturing, the medium was discarded, PBS was added and irradiation was carried out with ultraviolet rays (290 to 315 nm) at a radiation intensity of 20 mJ/cm^2. Following ultraviolet irradiation, culturing was continued under the medium conditions described above including 3-MA or rapamycin, and after 48 hours the culture supernatant of each was obtained. The IL-1β concentration of the obtained culture supernatant was evaluated using a Quantikine Human IL-1β ELISA Kit (R&D co.) (FIGS. 1A and B). Statistical significance testing was conducted using Student's or Welch's t test.

NHEK cells = experiment: IL-1β production after ultraviolet irradiation in siRNA-treated NHEK cells (ELISA); assay type: cell-based, human; conditions: siRNA 200 nM; UV 290 to 315 nm, 15 mJ/cm^2; culture supernatant after 48 hours
Procedure: (§1) An Amaxa Human Keratinocyte Nucleofector Kit (Lonza) was used to transfect NHEK cells (8.0×10^5 cells) with siRNA to a final concentration of 200 nM. The knockdown efficiency was confirmed by the mRNA expression level of Atg5, Atg7 and Beclin1 using an RT-PCR method (FIGS. 2A, B and C). The RT-PCR primers used were primers by Sigma-Aldrich, and GAPDH (Sigma-Aldrich) was used as an internal standard for standardization of the expression levels.
The siRNA-treated NHEK cells were seeded into a 6-well plate and cultured for 24 hours. The medium was then discarded, PBS was exchanged, and irradiation was carried out with ultraviolet rays (290 to 315 nm) at a radiation intensity of 15 mJ/cm^2. Following ultraviolet irradiation, the medium was again exchanged and culturing was continued for 48 hours to obtain a culture supernatant. The IL-1β concentration of the obtained culture supernatant was evaluated using a Quantikine Human IL-1β ELISA Kit (R&D co.) (FIGS. 3A, B and C). Student's t-test was used as the statistical significance test.

Atg5 = experiment: siRNA knockdown efficiency by RT-PCR, Atg5; assay type: cell-based, human; conditions: siRNA 200 nM in NHEK cells, GAPDH internal standard
Procedure: as §1

Atg7 = experiment: siRNA knockdown efficiency by RT-PCR, Atg7; assay type: cell-based, human; conditions: siRNA 200 nM in NHEK cells, GAPDH internal standard
Procedure: as §1

Beclin1 = experiment: siRNA knockdown efficiency by RT-PCR, Beclin1; assay type: cell-based, human; conditions: siRNA 200 nM in NHEK cells, GAPDH internal standard
Procedure: as §1

| Molecule | IL-1β concentration after ultraviolet irradiation, increase [1] | IL-1β production induced by ultraviolet ray (NHEK cells) | Atg5 expression (mRNA) (Atg5) | Atg7 expression (mRNA) (Atg7) | Beclin1 expression (mRNA) (Beclin1) |
| --- | --- | --- | --- | --- | --- |
| Cn1cnc(N)c2ncnc1-2 [3-methyladenine] | approximately 3 fold | – | – | – | – |
| Atg5-targeted siRNA: siRNA for Atg5 purchased from Invitrogen, SEQ ID NO: 1 and 2 (chain 1 GGUUUGGACGAAUUCCAACUUGUUU; chain 2 AAACAAGUUGGAAUUCGUCCAAACC; listed as RNA, chemistry not given here) | – | unchanged | suppressed | – | – |
| Atg7-targeted siRNA: siRNA for Atg7 purchased from Invitrogen, SEQ ID NO: 3 and 4 (chain 1 GCCGUCAUUGCUGCAAGCAAGAGAA; chain 2 UUCUCUUGCUUGCAGCAAUGACGGC; listed as RNA, chemistry not given here) | – | unchanged | – | suppressed | – |
| Beclin1-targeted siRNA: siRNA for Beclin1 purchased from Invitrogen, SEQ ID NO: 5 and 6 (chain 1 CCAAUAAGAUGGGUCUGAAAUUUCA; chain 2 UGAAAUUUCAGACCCAUCUUAUUGG; listed as RNA, chemistry not given here) | – | significantly increased | – | – | suppressed |
